Measured values from patent US20230416249A1, “N-[2-({4-[3-(ANILINO)-4-OXO-4,5,6,7-TETRAHYDRO-1H-PYRROLO[3,2-C]PYRIDIN-2-YL]PYRIDIN-3-YL)OXY)ETHYL]PROP-2-ENAMIDE DERIVATIVES AND SIMILAR COMPOUNDS AS EGFR INHIBITORS FOR THE TREATMENT OF CANCER” (Bayer Aktiengesellschaft, priority 2020, published 2023).
pIC50: −log10 of the molar value.

Tests used:
[1] = target: Ba/F3-EGFR-L858R T790M cells (Homo sapiens, UniProt P00533, T790M/L858R, cells depend on it); test: Ba/F3 cell survival assay (Cell Titer-Glo), EGFR-L858R T790M; format: cell-based; details: 48 h, without IL-3, 10 ng/mL EGF; read-out: BA/F3 (L858R T790M) IC50
Method: (§1) 293T cells from ATCC were transfected with pBABEpuro expression constructs for EGFR-L858R, EGFR-E746_A750del, EGFR-L858R T790M, or EGFR-E746_A750del T790M, and pCL-Eco packaging vector using Fugene-6 transfection reagent from Promega. Plates were incubated at 37° C. for 48 h. Retrovirus was harvested by filtering the media supernatant through a 0.45 μm filter.
(§2) Ba/F3 cells purchased from DSMZ were grown in RPMI+10% FBS+10 ng/mL IL-3 and infected with filtered retroviral supernatant at a 1:2 dilution. Polybrene was added to a concentration of 8 μg/mL, plates were spun for 90 min, and incubated for 16 h at 37° C. 2 μg/mL puromycin was added to the infected cells 24 h after infection and cells were continually grown in the presence of puromycin and 10 ng/mL IL-3. Following stably expressing Ba/F3 cell lines were generated: Ba/F3-EGFR-L858R, Ba/F3-EGFR-E746_A750del, Ba/F3-EGFR-L858R T790M, or Ba/F3-EGFR-E746_A750del T790M.
(§3) For cell survival assays, Ba/F3 cells were grown to a density of 1-2 million cells per mL, spun down and resuspended in media without IL-3, and replated at a concentration 200,000-500,000 cells per mL. The cells ectopically expressing EGFR-L858R, EGFR-E746_A750del, EGFR-L858R T790M, or EGFR-E746_A750del T790M were plated with 10 ng/mL Millipore Culture grade EGF. The cells ectopically expressing pBABEpuro empty vector were plated with 10 ng/mL IL-3.
(§4) 2 days later, cells were plated in 50 μL in a 384 well plate at a concentration of 4000 cells per well for cells assayed in the absence of IL-3 and 2000 cells per well for cells assayed in the presence of IL-3. 100 nL of compound was added to each well using a 100 nL pin head, and plates were incubated at 37° C. for 48 h.
(§5) Cell viability was measured by adding 20 μL of Cell Titer-Glo Luminescent Cell Viability Reagent diluted 1:3 in PBS. Plates were sealed with Perkin Elmer Top-Seal, inverted several times to mix, and immediately centrifuged at 1000 rpm for 2 min. Plates were incubated in low light conditions for 8-10 min and luminescence was measured.

[2] = target: T1, mutEGFR (D770_N771insSVD) (Homo sapiens, UniProt P00533, DUP768-770); test: Exon20-Mutant-EGFR(D770_N771insSVD) kinase assay (TR-FRET); format: biochemical; details: GST-EGFR ins SVD, 2 mM ATP, 15 min pre-incubation
T1 construct: GST-EGFR #3 (SVD between D770 and N771); made in house; host or cells: Sf9 insect cells (baculovirus)
Excerpt: Inhibitory activity of compounds of the present invention against an Epidermal Growth Factor Receptor (EGFR) with an insertion of the amino acids sequence SVD between D770 and N771 was quantified employing the TR-FRET based kinase activity assay as described in the following paragraphs.
A recombinant fusion protein of N-terminal Glutathion-S-Transferase (GST) and a fragment of human EGFR variant (amino acids R669 to A1210 with insertion of the amino acids sequence SVD between D770 and N771 (“EGFR ins SVD”), expressed in Sf9 insect cells and purified via affinity chromatography using Glutathion Sepharose as described above, was used as a kinase. As substrate for the kinase reaction the biotinylated peptide biotin-Ahx-AEEEEYFELVAKKK (SEQ ID NO: 6) (C-terminus in amide form) was used which can be purchased e.g. form the company Biosynthan GmbH (Berlin-Buch, Germany).
For the assay 50 nl of a 100-fold concentrated solution of the test compound in DMSO was pipetted into either a black low volume 384 well microtiter plate or a black 1536 well microtiter plate (both Greiner Bio-One, Frickenhausen, Germany), 2 μl of a solution of EGFR in aqueous assay buffer [50 mM Hepes pH 7.0, 10 mM MgCl2, 1 mM dithiothreitol, 0.5 mM EGTA, 0.3 mM activated sodium ortho-vanadate, 0.005% (w/v) bovine serum albumin, 0.005% (v/v) Tween-20] were added and the mixture was incubated for 15 min at 22° C. to allow pre binding of the test compounds to the enzyme before the start of the kinase reaction. Then the kinase reaction was started by the addition of 3 μL of a solution of adenosine tri phosphate (ATP, 3.33 mM=>final conc. in the 5 μL assay volume is 2 mM) and substrate (1.67 μM=>final conc. in the 5 μL assay volume is 1 μM) in assay buffer and the resulting mixture was incubated for a reaction time of 30 min at 22° C. The concentration of EGFR was adjusted depending of the activity of the enzyme lot and was chosen appropriate to have the assay in the linear range, typical concentration was 15 pg/μl. The reaction was stopped by the addition of 3 μl of a solution of HTRF detection reagents (83.3 nM streptavidine-XL665 [Cisbio Bioassays, Codolet, France] and 1.67 nM PT66-Tb-Cryptate, a terbium-cryptate labelled anti-phospho-tyrosine antibody from Cisbio Bioassays [instead of the PT66 Tb cryptate PT66 Eu Chelate from Perkin Elmer can also be used]) in an aqueous EDTA-solution (133.3 mM EDTA, 0.2% (w/v) bovine serum albumin in 50 mM HEPES pH 7.5).
The resulting mixture was incubated 1 h at 22° C. to allow the binding of the biotinylated phosphorylated peptide to the streptavidine-XL665 and the PT66-Tb-Cryptate. Subsequently the amount of phosphorylated substrate was evaluated by measurement of the resonance energy transfer from the PT66-Tb-Cryptate to the streptavidine-XL665. Therefore, the fluorescence emissions at 620 nm and 665 nm after excitation at 337 nm were measured in a HTRF reader, e.g. a Pherastar (BMG Labtechnologies, Offenburg, Germany) or a Viewlux (Perkin-Elmer). The ratio of the emissions at 665 nm and at […] was taken as the measure for the amount of phosphorylated substrate. The data were normalised (enzyme reaction without inhibitor=0% inhibition, all other assay components but no enzyme=100% inhibition).

Ba/F3-EGFR-insSVD cells = Ba/F3-EGFR-insSVD cells (Homo sapiens, UniProt P00533, DUP768-770, cells depend on it); test: Ba/F3 cell survival assay (Cell Titer-Glo), EGFR-insSVD; format: cell-based; details: 48 h, without IL-3, 10 ng/mL EGF; read-out: BA/F3 (insSVD) IC50
Method: as §1, with “WT EGFR” for “EGFR-L858R, EGFR-E746_A750del, EGFR-L858R T790M,”, “EGFR-insSVD, or EGFR-insSVD” for “EGFR-E746_A750del”
as §2, with “Ba/F3-EGFR-WT, Ba/F3-EGFR-insSVD, Ba/F3-EGFR-insSVD” for “Ba/F3-EGFR-L858R, Ba/F3-EGFR-E746_A750del, Ba/F3-EGFR-L858R”, “(Ba/F3—vector-control).” for “or Ba/F3-EGFR-E746_A750del T790M.”
as §3, with “WT EGFR, EGFR-insSVD,” for “EGFR-L858R, EGFR-E746_A750del, EGFR-L858R T790M,”, “EGFR-insSVD” for “EGFR-E746_A750del”
as §4, §5

Ba/F3-EGFR-WT cells = Ba/F3-EGFR-WT cells (Homo sapiens, UniProt P00533); test: Ba/F3 cell survival assay (Cell Titer-Glo), WT EGFR; format: cell-based; details: 48 h, without IL-3, 10 ng/mL EGF; read-out: BA/F3 (wild type) IC50
Method: as §1, with “WT EGFR” for “EGFR-L858R, EGFR-E746_A750del, EGFR-L858R T790M,”, “EGFR-insSVD, or EGFR-insSVD” for “EGFR-E746_A750del”
as §2, with “Ba/F3-EGFR-WT, Ba/F3-EGFR-insSVD, Ba/F3-EGFR-insSVD” for “Ba/F3-EGFR-L858R, Ba/F3-EGFR-E746_A750del, Ba/F3-EGFR-L858R”, “(Ba/F3—vector-control).” for “or Ba/F3-EGFR-E746_A750del T790M.”
as §3, with “WT EGFR, EGFR-insSVD,” for “EGFR-L858R, EGFR-E746_A750del, EGFR-L858R T790M,”, “EGFR-insSVD” for “EGFR-E746_A750del”
as §4, §5

[3] = target: Ba/F3-EGFR-E746_A750del T790M cells (Homo sapiens, UniProt P00533, DEL746-750/T790M, cells depend on it); test: Ba/F3 cell survival assay (Cell Titer-Glo), EGFR-E746_A750del T790M; format: cell-based; details: 48 h, without IL-3, 10 ng/mL EGF; read-out: BA/F3 (E746_A750del T790M) IC50
Method: as §1, §2, §3, §4, §5

Sequence of Ba/F3-EGFR-WT cells (P00533 whole entry, stated change not applied): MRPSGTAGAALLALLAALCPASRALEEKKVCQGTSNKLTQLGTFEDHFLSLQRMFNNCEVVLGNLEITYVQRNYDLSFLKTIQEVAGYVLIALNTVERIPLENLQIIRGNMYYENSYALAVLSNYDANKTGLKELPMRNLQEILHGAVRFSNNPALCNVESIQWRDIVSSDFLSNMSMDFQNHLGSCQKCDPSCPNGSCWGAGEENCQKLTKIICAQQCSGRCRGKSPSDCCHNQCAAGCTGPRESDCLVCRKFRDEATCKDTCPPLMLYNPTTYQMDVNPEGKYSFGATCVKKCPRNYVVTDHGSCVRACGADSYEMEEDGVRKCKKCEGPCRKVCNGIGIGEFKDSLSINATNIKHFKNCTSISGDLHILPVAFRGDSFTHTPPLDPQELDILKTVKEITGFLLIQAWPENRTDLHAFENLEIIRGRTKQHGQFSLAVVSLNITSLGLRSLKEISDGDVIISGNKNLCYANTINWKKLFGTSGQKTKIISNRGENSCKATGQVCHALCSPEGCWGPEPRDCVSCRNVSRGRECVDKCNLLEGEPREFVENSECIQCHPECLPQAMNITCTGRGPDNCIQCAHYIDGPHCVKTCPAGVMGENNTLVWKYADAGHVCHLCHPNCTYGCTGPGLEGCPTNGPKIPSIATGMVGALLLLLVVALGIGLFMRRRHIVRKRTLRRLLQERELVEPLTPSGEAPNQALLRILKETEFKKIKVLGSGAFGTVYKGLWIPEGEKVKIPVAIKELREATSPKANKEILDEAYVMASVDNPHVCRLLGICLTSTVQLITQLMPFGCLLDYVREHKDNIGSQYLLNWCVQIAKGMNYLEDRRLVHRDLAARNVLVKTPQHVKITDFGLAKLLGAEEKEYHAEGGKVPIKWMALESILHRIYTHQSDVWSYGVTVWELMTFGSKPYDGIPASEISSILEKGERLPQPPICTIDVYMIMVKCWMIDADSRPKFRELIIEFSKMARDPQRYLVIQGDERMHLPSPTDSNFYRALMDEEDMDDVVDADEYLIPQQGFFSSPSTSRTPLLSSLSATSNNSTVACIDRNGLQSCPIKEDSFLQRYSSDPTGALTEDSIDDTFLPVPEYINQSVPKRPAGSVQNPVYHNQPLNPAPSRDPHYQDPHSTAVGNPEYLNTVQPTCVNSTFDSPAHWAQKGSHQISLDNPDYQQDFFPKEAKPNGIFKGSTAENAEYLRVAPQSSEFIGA
Sequence of Ba/F3-EGFR-E746_A750del T790M cells (P00533 with tags, fused parts or gaps DEL746-750/T790M): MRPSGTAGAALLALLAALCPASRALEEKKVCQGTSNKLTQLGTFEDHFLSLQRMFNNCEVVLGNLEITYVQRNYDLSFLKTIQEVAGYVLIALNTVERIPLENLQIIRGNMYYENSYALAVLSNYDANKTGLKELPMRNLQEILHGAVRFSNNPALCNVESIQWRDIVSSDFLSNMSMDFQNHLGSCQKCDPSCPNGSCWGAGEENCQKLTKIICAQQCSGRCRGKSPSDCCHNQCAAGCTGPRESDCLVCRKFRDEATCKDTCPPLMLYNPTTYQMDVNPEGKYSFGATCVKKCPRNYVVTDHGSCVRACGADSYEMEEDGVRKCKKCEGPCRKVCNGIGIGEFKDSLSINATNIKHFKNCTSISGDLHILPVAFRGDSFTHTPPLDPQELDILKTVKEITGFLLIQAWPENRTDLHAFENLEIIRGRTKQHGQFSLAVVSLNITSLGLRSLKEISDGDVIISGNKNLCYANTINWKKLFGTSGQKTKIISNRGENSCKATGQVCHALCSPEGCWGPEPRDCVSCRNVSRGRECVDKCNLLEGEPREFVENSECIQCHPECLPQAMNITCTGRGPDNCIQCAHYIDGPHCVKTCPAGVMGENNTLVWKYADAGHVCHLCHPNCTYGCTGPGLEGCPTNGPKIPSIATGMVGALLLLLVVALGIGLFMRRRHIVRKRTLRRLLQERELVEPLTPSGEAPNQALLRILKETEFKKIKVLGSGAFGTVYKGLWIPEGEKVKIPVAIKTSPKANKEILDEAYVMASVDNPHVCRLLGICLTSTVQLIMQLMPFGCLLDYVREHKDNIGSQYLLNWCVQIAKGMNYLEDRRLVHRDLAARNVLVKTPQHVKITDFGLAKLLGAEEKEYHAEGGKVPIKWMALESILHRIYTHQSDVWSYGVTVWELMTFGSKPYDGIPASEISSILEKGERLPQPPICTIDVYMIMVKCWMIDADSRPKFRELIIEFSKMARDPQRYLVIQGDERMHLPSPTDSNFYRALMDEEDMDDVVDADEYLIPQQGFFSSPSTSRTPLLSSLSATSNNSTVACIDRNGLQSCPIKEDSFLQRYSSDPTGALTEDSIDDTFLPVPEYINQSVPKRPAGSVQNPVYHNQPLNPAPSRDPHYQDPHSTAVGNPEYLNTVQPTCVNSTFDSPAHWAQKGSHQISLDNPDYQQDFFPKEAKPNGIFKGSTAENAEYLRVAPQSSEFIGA
T1 sequence (P00533 with tags, fused parts or gaps DUP768-770): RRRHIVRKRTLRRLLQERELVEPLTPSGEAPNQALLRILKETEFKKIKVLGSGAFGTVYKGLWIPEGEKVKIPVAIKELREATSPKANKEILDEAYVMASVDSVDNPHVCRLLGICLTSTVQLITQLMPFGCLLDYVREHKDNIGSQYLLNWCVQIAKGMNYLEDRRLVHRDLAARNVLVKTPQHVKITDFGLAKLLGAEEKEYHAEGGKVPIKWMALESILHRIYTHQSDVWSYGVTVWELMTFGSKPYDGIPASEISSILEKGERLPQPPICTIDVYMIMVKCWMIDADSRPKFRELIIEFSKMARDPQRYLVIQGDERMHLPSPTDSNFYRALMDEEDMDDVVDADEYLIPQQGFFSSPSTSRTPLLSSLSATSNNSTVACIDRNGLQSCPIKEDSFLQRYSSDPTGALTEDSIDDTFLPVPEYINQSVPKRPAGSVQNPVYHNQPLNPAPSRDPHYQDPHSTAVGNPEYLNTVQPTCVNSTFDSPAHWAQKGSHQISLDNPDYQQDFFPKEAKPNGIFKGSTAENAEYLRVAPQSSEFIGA
Sequence of Ba/F3-EGFR-insSVD cells (P00533 with tags, fused parts or gaps DUP768-770): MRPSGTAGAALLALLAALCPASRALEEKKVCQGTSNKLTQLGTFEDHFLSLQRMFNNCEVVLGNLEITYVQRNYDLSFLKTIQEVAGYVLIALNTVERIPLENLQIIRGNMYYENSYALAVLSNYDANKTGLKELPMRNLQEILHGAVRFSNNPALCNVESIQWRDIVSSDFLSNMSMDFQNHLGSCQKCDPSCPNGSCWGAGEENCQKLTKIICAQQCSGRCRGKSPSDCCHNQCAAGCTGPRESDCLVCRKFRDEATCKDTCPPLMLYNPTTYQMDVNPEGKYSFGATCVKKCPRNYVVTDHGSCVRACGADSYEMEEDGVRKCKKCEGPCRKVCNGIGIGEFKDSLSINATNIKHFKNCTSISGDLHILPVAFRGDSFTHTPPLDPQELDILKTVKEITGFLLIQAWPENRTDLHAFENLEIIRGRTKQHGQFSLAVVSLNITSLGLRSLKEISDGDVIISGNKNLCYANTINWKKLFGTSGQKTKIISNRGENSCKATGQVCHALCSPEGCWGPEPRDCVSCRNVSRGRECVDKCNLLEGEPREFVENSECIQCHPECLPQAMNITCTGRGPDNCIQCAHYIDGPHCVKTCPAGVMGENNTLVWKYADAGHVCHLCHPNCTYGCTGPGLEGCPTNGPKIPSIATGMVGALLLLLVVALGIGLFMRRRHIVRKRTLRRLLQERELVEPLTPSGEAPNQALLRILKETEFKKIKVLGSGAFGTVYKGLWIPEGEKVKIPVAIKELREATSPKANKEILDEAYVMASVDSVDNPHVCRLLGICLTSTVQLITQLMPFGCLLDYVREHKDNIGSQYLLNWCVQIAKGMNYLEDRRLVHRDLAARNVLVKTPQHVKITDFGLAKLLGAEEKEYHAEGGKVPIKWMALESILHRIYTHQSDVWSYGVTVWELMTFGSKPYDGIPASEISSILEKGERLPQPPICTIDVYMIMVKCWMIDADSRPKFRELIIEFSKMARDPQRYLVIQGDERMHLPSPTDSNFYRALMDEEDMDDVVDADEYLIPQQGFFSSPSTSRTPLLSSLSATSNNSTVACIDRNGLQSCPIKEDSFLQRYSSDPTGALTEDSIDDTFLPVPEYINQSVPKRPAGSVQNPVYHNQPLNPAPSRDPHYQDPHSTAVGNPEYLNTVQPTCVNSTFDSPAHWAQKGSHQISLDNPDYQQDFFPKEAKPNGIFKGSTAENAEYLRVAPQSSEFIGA

Compound | GI50 [1] [nM] | pIC50 [2] | GI50 (Ba/F3-EGFR-insSVD cells) [nM] | GI50 (Ba/F3-EGFR-WT cells) [nM] | GI50 [3] [nM]
COc1c(Cl)cccc1Nc1c(-c2ccncc2OCCN(C)C(=O)/C=C/CN(C)C)[nH]c2c1C(=O)NC1(CCC1)C2 [Example 10, (2E)-N-[2-({4-[3′-(3-chloro-2-methoxyanilino)-4′-oxo-1′,4′,5′,7′-tetrahydrospiro[cyclobutane-1,6′-pyrrolo[3,2-c]pyridin]-2′-yl]pyridin-3-yl}oxy)ethyl]-4-(dimethylamino)-N-methylbut-2-enamide] | > 1000 | 8.45 | 205 | 1660 | 651
C=CC(=O)N(C)CCOc1cnccc1-c1[nH]c2c(c1Nc1cccc(Cl)c1OC)C(=O)NC1(CCC1)C2 [Example 11, N-[2-({4-[3′-(3-chloro-2-methoxyanilino)-4′-oxo-1′,4′,5′,7′-tetrahydrospiro[cyclobutane-1,6′-pyrrolo[3,2-c]pyridin]-2′-yl]pyridin-3-yl}oxy)ethyl]-N-methylprop-2-enamide] | 198 | 9.33 | 12.2 | 309 | 25.8
C=CC(=O)N(C)CCOc1cnccc1-c1[nH]c2c(c1Nc1cccc(Cl)c1OC)C(=O)NC(C)(C)C2 [Example 12, N-[2-({4-[3-(3-chloro-2-methoxyanilino)-6,6-dimethyl-4-oxo-4,5,6,7-tetrahydro-1H-pyrrolo[3,2-c]pyridin-2-yl]pyridin-3-yl}oxy)ethyl]-N-methylprop-2-enamide] | 276 | 9.23 | 17.7 | 330 | 47.4
C=CC(=O)N(C)CCOc1cnccc1-c1[nH]c2c(c1Nc1ccccc1OC(F)F)C(=O)NCC2 [Example 14, N-(2-{[4-(3-{[2-(difluoromethoxy)phenyl]amino}-4-oxo-4,5,6,7-tetrahydro-1H-pyrrolo[3,2-c]pyridin-2-yl)pyridin-3-yl]oxy}ethyl)-N-methylprop-2-enamide] | 397 | 9.24 | 35.4 | 652 | 29.1
